According to the SangsterLogP compilation:

test: not given

Compound | logP
CC12CCC(CC1)C(C)(C)O2 | 2.84
CC12CCC(CC1=O)C2(C)C (configuration not stated) | 2.74
CC(C)C12CCC(C)(CC1)O2 | 2.97
C/C=C/c1ccc(O)c(OC)c1 | 3.04
CC1=CCC2C(C1)C2(C)C (configuration not stated) | 4.38
CC(=O)/C=C/[C@H]1C(C)=CCCC1(C)C | 3.85
CC1=CC(=O)[C@H]2CC1C2(C)C | 2.23
CC1(C)C2CCC1(C)C(O)C2 (configuration not stated) | 3.01
CC1=CC(=O)C(C(C)C)CC1 (configuration not stated) | 2.85
CC(=O)C=CC1=C(C)CCCC1(C)C | 3.84
C=C(C)[C@H]1CC[C@H](C)[C@@H](O)C1 | 3.21
CC(C)=C1CC[C@@H](C)CC1=O | 3.08
CC(C)[C@@H]1CC[C@@H](C)CC1=O | 3.05
CC1(C)[C@@H]2CC=C(C=O)[C@H]1C2 | 2.98
CC1(C)C2CCC(CN)C1C2 (configuration not stated) | 2.05
C=CC(C)(CCC=C(C)C)OC(C)=O (configuration not stated) | 3.93
CC1=C[C@H](O)[C@H]2C[C@@H]1C2(C)C | 3.16

Compound | logP
C=C(C)[C@@H]1CC=C(CO)CC1 | 3.17
CC(C)=CCC/C(C)=C/CO | 3.56
C=C(C)C1CCC2(C)OC2C1 (configuration not stated) | 3.2
Cc1ccc(C(C)C)cc1O | 3.49
CC1=CCC2[C@H](C1=O)C2(C)C (some centres not stated) | 2.42
CC12CC[C@@H](C1)C(C)(C)C2=O (stereo in doubt) | 3.17
CC(C)=CCC[C@@H](C)CC=O | 3.83
C=CCc1ccc(OC)c(OC)c1 | 3.45
CC(=O)OC1C[C@H](C)CCC1C(C)C (some centres not stated) | 4
CC1=CCC(=C(C)C)CC1 | 4.24
CC1=CC2C(CC1)C2(C)C (configuration not stated) | 4.44
CC1(C)[C@H]2CC=C(CO)[C@@H]1C2 | 3.22
CC1(C)[C@H]2CC[C@@H](CO)[C@@H]1C2 | 3.41
CC1=CC=C(C(C)C)CC1 | 4.25
CC(=O)OC/C=C(\C)CCC=C(C)C | 4.04
C=CC1(C)CCC(C(C)(C)O)O1 (configuration not stated) | 2.43
C=C(C)[C@@H]1CC=C(C=O)CC1 | 3.13

test: method code SF-GLC, from DOI: 10.1016/s0021-9673(99)01009-2, PMID: 10669289

Compound | logP
C=C(C)[C@H]1CC=C(C)C(=O)C1 | 2.71
CC1=CCC(C(C)(C)O)CC1O (configuration not stated) | 1.11
CC1=CCC2C[C@H]1C2(C)C | 4.44
CC1=CCC(O)(C(C)C)CC1 (configuration not stated) | 2.8
CC1=CCC(C(C)(C)O)CC1 (configuration not stated) | 3.28
C=C(C)C1CC=C(C)C(O)C1 (configuration not stated) | 2.85
CC(=O)OC(C)(C)C1C=CC(C)CC1 (configuration not stated) | 3.96
C=C(C)C1CCC(C)C(=O)C1 (configuration not stated) | 2.85
